From patent publication US20220168310A1, “INHIBITION OF ADENOVIRUS WITH FILOCICLOVIR” (Microbiotix, Inc., priority 2019, published 2022)
Like-named read-outs stand apart in the source and are kept apart here.

Experiments:
Adenovirus 5 (AdV5) = assay: Cytopathic effects (CPE) reduction assay, AdV5 in HFF cells, 384-well; format: cell-based, human adenovirus; conditions: for SI: CC50/EC50, AdV5
[1] = Cytotoxicity, CellTiter-Glo cell viability assay in HFF cells; conditions: human
Experimental: (§1) Human foreskin tissue was obtained from the University of Alabama at Birmingham tissue procurement facility with approval from the Institutional Review Board. The tissue was stored at 4° C. in cell culture medium consisting of minimum essential media (MEM) with Earle's salts supplemented with 10% fetal bovine serum (FBS; HyClone, Inc., Logan, Utah) and standard concentration of L-glutamine, amphotericin B (Fungizone), and vancomycin. The tissue was then placed in a phosphate-buffered saline solution, minced, and rinsed to remove the red blood cells. Tissue fragments were then resuspended in a trypsin-EDTA solution and incubated at 37° C. to disperse the cells, which were then collected by centrifugation. Cell pellets were then resuspended in 4 ml culture medium, placed in a 25-cm^2 tissue culture flask, and incubated at 37° C. for 24 h. The culture medium was then replaced with fresh medium and condition of the cells was monitored daily until a confluent cell monolayer was formed. The HFF cells were then expanded through serial passages in standard growth medium of MEM with Earle's salts supplemented with 10% FBS, L-glutamine, penicillin, and gentamicin. Each lot of cells was confirmed to be free of mycoplasma infection and routinely passaged or used for assays at or before passage 10.
(§2) Antiviral and cytotoxicity data were obtained in a series of three to five separate experiments for each virus to provide an accurate estimate of antiviral activity and statistical data. Each assay included positive and negative control compounds as well as infected and uninfected controls to ensure the integrity of the experiment.
(§3) The CPE reduction assays were performed in monolayers of human foreskin fibroblast (HFF) cells (5000/well) in 384-well plates in assay media consisting of MEM with Earle's salts, 2% FBS and standard concentrations of L-glutamine, penicillin and gentamycin. 5000 cells were seeded in 384-well microtiter plates and incubated at 37° C. in a humidified 5% CO2 incubator for 24 hours to allow for formation of confluent monolayers.
(§4) Cell monolayers were infected at a multiplicity of infection (MOI) of approximately 0.005 PFU/cell with virus strains including AdV5. […] Cytopathology was determined by the addition of CellTiter-Glo® reagent (Promega, Madison, Wis.). Concentrations of antiviral test compounds sufficient to reduce CPE by 50% (EC50) were interpolated from the experimental data using standard methods in Microsoft® Excel.

[2] = tested on: human foreskin fibroblast (HFF) cells; assay: as above
Experimental: as §1, §2, §3, §4

Human AdV6 [3] = assay: High dose filociclovir against intravenously administered AdV6 in immunosuppressed hamsters (Example 5); conditions: 5 days post challenge, CDV 20 mg/kg 3 times weekly
Experimental: Four dose levels were tested: 10, 30, 60, and 100 mg/kg p.o. q.d. The highest dose was determined based on rat toxicology data.
All hamsters were immunosuppressed using cyclophosphamide (CP). CP was administered intraperitoneally at a dose of 140 mg/kg, and then twice weekly at a dose of 100 mg/kg.
Filociclovir, in powdered form, was suspended in 0.4% carboxymethyl cellulose (Sigma C5678) at 1, 3, 6, and 10 mg/ml and sonicated to visual homogeneity and aliquots stored at 4° C. Aliquots were allowed to equilibrate to room temperature before dosing. Hamsters weighing approximately 100 g were dosed with a 1 ml volume of the appropriate suspension for the 10, 30, 60, and 100 mg/kg dose levels. References to “vehicle” refers to 0.4% carboxymethyl cellulose
The hamsters were divided into 8 groups, 15 hamsters/group, (with the exception of Group 2, which had only 5 hamsters; see Table 3), immunosuppressed, and then injected i.v. with vehicle (Groups 1-2) or 2×10^10 PFU/kg of AdV6 (Groups […]). Groups 1 and 3 received drug vehicle (p.o. q.d.), Group 4 received 10 mg/kg filociclovir (p.o. q.d.), Group 5 received 30 mg/kg filociclovir (p.o. q.d.), Group 6 received 60 mg/kg filociclovir (p.o. q.d.), Groups 2 and 7 received 100 mg/kg filociclovir (p.o. q.d.), and Group 8 received cidofovir (20 mg/kg, 3 times weekly). For all groups, drug administration started 1 day before challenge, and continued according to the schedule above for the duration of the study.
The body weights and any signs of morbidity of the animals were recorded daily. At 5 days post challenge, 5 hamsters (designated at the start of the experiment) from each group (with the exception of Group 2) were sacrificed, and gross pathological observation was performed. Serum and liver samples were collected and the virus burden in liver was determined by a TCID50 assay, and the serum was analyzed for transaminase levels. The remaining 10 hamsters were sacrificed at 14 days post challenge. Hamsters that became visually moribund before Day 14 were sacrificed as needed. In addition to the hamsters observed to be moribund, all hamsters that lost more than 20% of their original body weight were also sacrificed. For the hamsters sacrificed at the conclusion of the experiment and those sacrificed as moribund, serum and liver tissues were collected and banked for possible determination of serum transaminase levels and virus burden in the liver. Liver tissue was preserved in formalin for possible histopathological examination.

Human AdV6 [4] = assay: Low dose filociclovir against intravenously administered AdV6 in immunosuppressed hamsters (Example 6)
Experimental: Three dose levels were tested: 1, 3, and 10 mg/kg p.o. q.d.
All hamsters were immunosuppressed using cyclophosphamide (CP) administered intraperitoneally at a dose of 140 mg/kg, and then twice weekly at a dose of 100 mg/kg. Filociclovir in powdered form was suspended in 0.4% carboxymethyl cellulose (Sigma C5678) at 0.1, 0.3, and 1.0 mg/ml and sonicated to visual homogeneity. Filociclovir was made up once weekly, aliquoted into daily portions, and stored at 4° C. Aliquots were allowed to equilibrate to room temperature before dosing.
Hamsters were distributed into 7 groups, 15 hamsters/group (see Table 4), immunosuppressed as described above, and injected i.v. with vehicle (Groups 1-2) or 4×10^10 PFU/kg of AdV6 (Groups 3-7). Groups 1 and 3 received drug vehicle (p.o. q.d.), Groups 2 and 6 received 10 mg/kg filociclovir (p.o. q.d.), Group 4 received 3 mg/kg filociclovir (p.o. q.d.), Group 5 received 1 mg/kg filociclovir (p.o. q.d.), and Group 7 received cidofovir (one dose of 37 mg/kg, followed by 20 mg/kg doses 3 times weekly). For all groups, drug administration started 1 day before challenge, and continued according to the schedule above for the duration of the study.
The body weights and any signs of morbidity of the animals were monitored and recorded daily. At 5 days post challenge, 5 hamsters (designated at the start of the experiment) from each group were sacrificed, and gross pathological observation was performed. Serum and liver were collected and virus burden in liver was determined by TCID50 assay and the serum was analyzed for transaminase levels. The remaining 10 hamsters were sacrificed at 14 days post challenge. Hamsters that became moribund before Day 14 were sacrificed as needed. In addition to the animals judged moribund by observation, we sacrificed all hamsters that lost more than 20% of their original body weight. For all animals, liver tissue was preserved in formalin for histopathological examination.

AdV5 = conditions: background, Kinchington et al 2005 cited; read-out: IC50 against AdV5; cited from earlier work
[5] = Human mastadenovirus C, AdV5, HFF cells, 384 well CPE, average and SD from five independent experiments, read-out: EC50
[6] = human foreskin fibroblast (HFF) cell monolayers, CC50, HFF cells, run with AdV5 assay, average and SD from five independent experiments
[7] = AdV5, HFF cells, 384 well CPE, average and SD from five independent experiments, read-out: EC50
[8] = HFF cells, run with AdV5 assay, average and SD from five independent experiments

SMILES: Nc1nc2c(ncn2COCCO)c(=O)[nH]1 [ACV, acyclovir]
- SI (Adenovirus 5 (AdV5)): 1.0
- EC50 (Adenovirus 5 (AdV5); [5]): > 100 µM
- CC50 [1, 6]: > 100 µM

SMILES: OC[C@H]1O[C@@H](n2c(Br)nc3cc(Cl)c(Cl)cc32)[C@H](O)[C@@H]1O [BDCRB, bromodichlororibobenzimidazole]
- EC50 (Adenovirus 5 (AdV5); [7]): 70 ± 39 µM
- SI (Adenovirus 5 (AdV5)): 1.3
- CC50 [2, 8]: 91 ± 13 µM

SMILES: Nc1ccn(C[C@@H](CO)OCP(=O)(O)O)c(=O)n1 [CDV, cidofovir, reference compound]
- animals with elevated serum transaminase levels (ALT) (Human AdV6 [3]; filociclovir p.o. q.d. groups): none
- virus burden in the liver (Human AdV6 [3]; TCID50): very low to nonquantifiable levels
- EC50 (Adenovirus 5 (AdV5); Human mastadenovirus C, HFF): 4 ± 2 µM
- AdV6-induced liver damage, serum transaminase (ALT) (Human AdV6 [4]; CDV, 5 days post challenge): completely prevented AdV6-induced liver pathology
- AdV6 replication in the liver (Human AdV6 [4]; CDV, 5 days post challenge, TCID50): completely prevented AdV6 replication in the liver
- body weight loss (Human AdV6 [4]; cidofovir 37 mg/kg once, then 20 mg/kg 3 times weekly): completely reversed body weight loss
- CC50 [1, 6]: 97 ± 4 µM

SMILES: CCCCCCCCCCCCCCCCOCCCOP(=O)(O)CO[C@H](CO)Cn1ccc(N)nc1=O [CMX001, brincidofovir]
- SI (Adenovirus 5 (AdV5)): 27.7
- EC50 (Adenovirus 5 (AdV5); [5]): < 0.03 µM
- CC50 [1, 6]: 0.83 ± 0.7 µM

SMILES: O=c1[nH]c(=O)n([C@@H]2O[C@H](CO)[C@@H](O)[C@@H]2F)cc1I [FIAU]
- EC50 (Adenovirus 5 (AdV5); [7]): > 100 µM
- SI (Adenovirus 5 (AdV5)): 1.0
- CC50 [2]: > 100 µM

SMILES: Nc1nc(O)c2ncn(COC(CO)CO)c2n1 [GCV, ganciclovir]
- EC50 (Adenovirus 5 (AdV5); Human mastadenovirus C, HFF): 66 ± 15.1 µM
- IC50 (Adenovirus 5 (AdV5); Human mastadenovirus C, HFF, read-out: IC50 value against AdV5): 66 µM
- CC50 [1, 6]: > 100 µM
- IC50 (AdV5): 66 ± 15.1 µM

SMILES: O=c1[nH]c(=O)n([C@H]2C[C@H](O)[C@@H](CO)O2)cc1I [IDU, idoxuridine]
- SI (Adenovirus 5 (AdV5)): 1.0
- EC50 (Adenovirus 5 (AdV5); [5]): > 100 µM
- CC50 [1, 6]: > 100 µM

SMILES: O=c1[nH]c(=O)n([C@@H]2CO[C@H](CO)O2)cc1/C=C/Br [L-BHDU, L-Bromovinyl-Hydroxymethyl-Dioxolan Uracil]
- EC50 (Adenovirus 5 (AdV5); [7]): > 100 µM
- SI (Adenovirus 5 (AdV5)): 1.0
- CC50 [2]: > 100 µM

SMILES: Cc1cn([C@H]2C[C@H](O)[C@]3(CO)C[C@H]23)c(=O)[nH]c1=O [N-MCT, N-methanocarbathymidine]
- EC50 (Adenovirus 5 (AdV5); [7]): 57 ± 47 µM
- SI (Adenovirus 5 (AdV5)): 1.3
- CC50 [2, 8]: 72 ± 33 µM

SMILES: Nc1nc2c(ncn2CCC(CO)CO)c(=O)[nH]1 [PCV, penciclovir]
- SI (Adenovirus 5 (AdV5)): 1.0
- EC50 (Adenovirus 5 (AdV5); [5]): > 100 µM
- CC50 [1, 6]: > 100 µM

SMILES: O=C(O)P(=O)(O)O [PFA, foscarnet]
- SI (Adenovirus 5 (AdV5)): 1.0
- EC50 (Adenovirus 5 (AdV5); [5]): > 1000 µM
- CC50 [1, 6]: > 1000 µM

SMILES: Nc1ncnc2c1ncn2CCOCP(=O)(O)O [PMEA, adefovir]
- SI (Adenovirus 5 (AdV5)): 2.1
- EC50 (Adenovirus 5 (AdV5); [5]): 48 ± 8 µM
- CC50 [1]: > 100 µM
